Measurements reported in PubChem BioAssay (NCI).
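Assay format: 96-well plates, 48-hour exposure. GI50 marks 50% less growth. TGI is the concentration that stops growth completely.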

Legend:
Assay in all cases: DTP human tumour cell line panel, 48 h
[1] = tested on: SW-620 colon
[2] = tested on: HOP-92 NSCLC
[3] = tested on: OVCAR-5 ovarian
[4] = tested on: MCF7 breast
[5] = tested on: COLO 205 colon
[6] = tested on: 786-0 renal
[7] = tested on: U251 CNS
[8] = tested on: EKVX NSCLC
[9] = tested on: T-47D breast
[10] = tested on: SF-268 CNS
[11] = tested on: LOX IMVI melanoma
[12] = tested on: MDA-MB-231 breast
[13] = tested on: MDA-MB-435
[14] = tested on: SK-OV-3 ovarian
[15] = tested on: IGROV1 ovarian
[16] = tested on: HCT-116 colon
[17] = tested on: OVCAR-8 ovarian
[18] = tested on: SNB-75 CNS
[19] = tested on: UACC-62 melanoma
[20] = tested on: ACHN renal
[21] = tested on: BT-549 breast
[22] = tested on: SF-539 CNS
[23] = tested on: CAKI-1 renal
[24] = tested on: SNB-19 CNS
[25] = tested on: UO-31 renal
[26] = tested on: KM12 colon
[27] = tested on: K-562 leukemia
[28] = tested on: M14 melanoma
[29] = tested on: SK-MEL-5 melanoma
[30] = tested on: A549 NSCLC
[31] = tested on: MOLT-4 leukemia
[32] = tested on: NCI-H226 lung
[33] = tested on: NCI-H23 lung
[34] = tested on: SF-295 CNS
[35] = tested on: SK-MEL-28 melanoma
[36] = tested on: RPMI-8226 leukemia
[37] = tested on: NCI/ADR-RES ovarian
[38] = tested on: HT29 colon
[39] = tested on: HOP-62 NSCLC
[40] = tested on: HCT-15 colon
[41] = tested on: CCRF-CEM leukemia
[42] = tested on: UACC-257 melanoma
[43] = tested on: DU-145 prostate
[44] = tested on: TK-10 renal
[45] = tested on: SK-MEL-2 melanoma
[46] = tested on: PC-3 prostate
[47] = tested on: A498 renal
[48] = tested on: OVCAR-3 ovarian
[49] = tested on: MALME-3M melanoma
[50] = tested on: RXF 393 renal
[51] = tested on: NCI-H460 lung
[52] = tested on: HCC-2998 colon
[53] = tested on: HS 578T breast
[54] = tested on: NCI-H522 lung
[55] = tested on: SN12C renal

O=C(O)[C@@H]1CCCN1Cc1cc2cc3c(cc2c2cc(OCc4ccccc4)ccc12)OCO3
GI50 [1]: 14.1 µM | TGI [1]: 54.6 µM | GI50 [2]: 21.9 µM | TGI [2]: 63.3 µM | GI50 [3]: 21.4 µM | TGI [3]: 54.9 µM | GI50 [4]: 17.2 µM | TGI [4]: 43.9 µM | GI50 [5]: 14.7 µM | TGI [5]: 30.6 µM | GI50 [6]: 55 µM | TGI [6]: > 100 µM | GI50 [7]: 30.1 µM | TGI [7]: > 100 µM | GI50 [8]: 21.8 µM | TGI [8]: 61.7 µM | GI50 [9]: 19.2 µM | TGI [9]: 54 µM | GI50 [10]: 24.4 µM | TGI [10]: 55.9 µM | GI50 [11]: 17.1 µM | TGI [11]: 31.7 µM | GI50 [12]: 15 µM | TGI [12]: 42.6 µM | GI50 [13]: 23.4 µM | TGI [13]: 58.4 µM | GI50 [14]: 32.4 µM | TGI [14]: 81.3 µM | GI50 [15]: 24.1 µM | TGI [15]: 62.6 µM | GI50 [16]: 37.6 µM | TGI [16]: > 100 µM | GI50 [17]: 30.8 µM | TGI [17]: > 100 µM | GI50 [18]: 21.1 µM | TGI [18]: 52.4 µM | GI50 [19]: 16.8 µM | TGI [19]: 33.2 µM | GI50 [20]: 26.1 µM | TGI [20]: 86.6 µM | GI50 [21]: 22.6 µM | TGI [21]: 52.9 µM | GI50 [22]: 25.1 µM | TGI [22]: 60.1 µM | GI50 [23]: 20.3 µM | TGI [23]: 53.6 µM | GI50 [24]: 18.5 µM | TGI [24]: 48.3 µM | GI50 [25]: 24.3 µM | TGI [25]: > 100 µM | GI50 [26]: 31.8 µM | TGI [26]: > 100 µM | GI50 [27]: 28.7 µM | TGI [27]: > 100 µM | GI50 [28]: 46.1 µM | TGI [28]: > 100 µM | GI50 [29]: 14.7 µM | TGI [29]: 31.6 µM | GI50 [30]: 27.1 µM | TGI [30]: > 100 µM | GI50 [31]: 30.7 µM | TGI [31]: > 100 µM | GI50 [32]: 21.8 µM | TGI [32]: 50.5 µM | GI50 [33]: 38.4 µM | TGI [33]: > 100 µM | GI50 [34]: 18.3 µM | TGI [34]: 45 µM | GI50 [35]: 19.4 µM | TGI [35]: 43.9 µM | GI50 [36]: 17 µM | TGI [36]: 60.9 µM | GI50 [37]: 43.9 µM | TGI [37]: > 100 µM | GI50 [38]: 18 µM | TGI [38]: 37.2 µM | GI50 [39]: 51.2 µM | TGI [39]: > 100 µM | GI50 [40]: 28.5 µM | TGI [40]: > 100 µM | GI50 [41]: 23.2 µM | TGI [41]: > 100 µM | GI50 [42]: 28.9 µM | TGI [42]: 71.8 µM | GI50 [43]: 19.4 µM | TGI [43]: 65.9 µM | GI50 [44]: 27.8 µM | TGI [44]: 77.7 µM | GI50 [45]: 20.1 µM | TGI [45]: 45.5 µM | GI50 [46]: 29.8 µM | TGI [46]: > 100 µM | GI50 [47]: 13.5 µM | TGI [47]: 45.3 µM | GI50 [48]: 17.5 µM | TGI [48]: 43.6 µM | GI50 [49]: 25.8 µM | TGI [49]: 60.1 µM | GI50 [50]: 20.6 µM | TGI [50]: 42.6 µM | GI50 [51]: 17.8 µM | TGI [51]: 44.6 µM | GI50 [52]: 36.4 µM | TGI [52]: > 100 µM | GI50 [53]: 17.6 µM | TGI [53]: 49.2 µM | GI50 [54]: 23.7 µM | TGI [54]: 58.3 µM | GI50 [55]: 23.1 µM | TGI [55]: 72.7 µM
